Measured values reported in US10766894B2, “Aza-indazole compounds for use in tendon and/or ligament injuries” (NOVARTIS AG, priority 2016, dated 2020).
Like-named read-outs stand apart in the source and are kept apart here.

Experiments:
[1] = tested on: Tenomodulin (Tnmd) gene expression in rat tail tendon fascicles; test: Ex vivo assay, tendon fascicles, Tenomodulin mRNA (qPCR); type: cell-based, Sprague Dawley rat; conditions: 96 h, read-out: Ex vivo Tnmd (EC50 uM)
[2] = target: recombinant human Jak3 (aa811-1124) (Homo sapiens (Human), UniProt P52333); test: Kinase panel, substrate peptide phosphorylation (Caliper mobility shift), JAK3; type: biochemical
recombinant human Jak3 (aa811-1124), sequence (P52333 811-1124 limits assumed): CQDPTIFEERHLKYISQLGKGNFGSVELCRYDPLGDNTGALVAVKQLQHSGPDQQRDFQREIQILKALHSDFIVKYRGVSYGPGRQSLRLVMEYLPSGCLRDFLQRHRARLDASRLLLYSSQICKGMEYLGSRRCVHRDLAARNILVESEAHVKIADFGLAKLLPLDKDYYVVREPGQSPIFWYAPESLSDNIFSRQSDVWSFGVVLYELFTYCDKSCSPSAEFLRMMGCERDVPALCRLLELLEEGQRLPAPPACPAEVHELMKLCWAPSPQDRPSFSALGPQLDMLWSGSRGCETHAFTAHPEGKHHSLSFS

[3] = target: recombinant human Tyk2 (aa888-1187) (Homo sapiens (Human), UniProt P29597); test: Kinase panel, substrate peptide phosphorylation (Caliper mobility shift), TYK2; type: biochemical; conditions: 3 nM kinase, 45 uM ATP, 60 min at 30° C.
recombinant human Tyk2 (aa888-1187), sequence (P29597 888-1187): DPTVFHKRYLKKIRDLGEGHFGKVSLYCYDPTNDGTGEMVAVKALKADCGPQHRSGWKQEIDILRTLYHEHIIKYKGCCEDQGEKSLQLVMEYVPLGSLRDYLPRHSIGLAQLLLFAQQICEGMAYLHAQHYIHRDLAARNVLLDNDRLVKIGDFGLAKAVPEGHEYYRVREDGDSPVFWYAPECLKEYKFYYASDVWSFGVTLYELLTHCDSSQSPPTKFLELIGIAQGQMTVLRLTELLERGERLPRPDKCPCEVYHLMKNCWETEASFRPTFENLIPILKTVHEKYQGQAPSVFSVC

[4] = tested on: collagen type 1 (Col1a2) gene expression in rat tail tendon fascicles; test: Ex vivo assay, tendon fascicles, collagen type 1 mRNA (qPCR); type: cell-based, Sprague Dawley rat; conditions: 96 h, read-out: Ex vivo Col1a2 (EC50 uM)
[5] = target: recombinant human Jak1 (aa 866-1154) (Homo sapiens (Human), UniProt P23458); test: Kinase panel, substrate peptide phosphorylation (Caliper mobility shift), JAK1; type: biochemical; conditions: 3 nM kinase, 45 uM ATP, 60 min at 30° C.
recombinant human Jak1 (aa 866-1154), sequence (P23458 866-1154): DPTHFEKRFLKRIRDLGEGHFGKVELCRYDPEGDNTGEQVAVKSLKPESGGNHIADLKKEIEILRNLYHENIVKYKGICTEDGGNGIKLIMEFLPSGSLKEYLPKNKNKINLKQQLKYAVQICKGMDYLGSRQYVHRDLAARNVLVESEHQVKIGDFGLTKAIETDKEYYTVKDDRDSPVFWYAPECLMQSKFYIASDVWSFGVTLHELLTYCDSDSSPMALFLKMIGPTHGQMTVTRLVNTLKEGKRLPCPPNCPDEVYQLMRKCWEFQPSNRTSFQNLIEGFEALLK

[6] = tested on: Scleraxis (Scx) gene expression in rat tail tendon fascicles; test: Ex vivo assay, tendon fascicles, Scleraxis mRNA (qPCR); type: cell-based, Sprague Dawley rat; conditions: 96 h, read-out: Ex vivo SCX (EC50 uM)
[7] = target: recombinant human Jak2 (aa808-1132) (Homo sapiens (Human), UniProt O60674); test: Kinase panel, substrate peptide phosphorylation (Caliper mobility shift), JAK2; type: biochemical
recombinant human Jak2 (aa808-1132), sequence (O60674 808-1132): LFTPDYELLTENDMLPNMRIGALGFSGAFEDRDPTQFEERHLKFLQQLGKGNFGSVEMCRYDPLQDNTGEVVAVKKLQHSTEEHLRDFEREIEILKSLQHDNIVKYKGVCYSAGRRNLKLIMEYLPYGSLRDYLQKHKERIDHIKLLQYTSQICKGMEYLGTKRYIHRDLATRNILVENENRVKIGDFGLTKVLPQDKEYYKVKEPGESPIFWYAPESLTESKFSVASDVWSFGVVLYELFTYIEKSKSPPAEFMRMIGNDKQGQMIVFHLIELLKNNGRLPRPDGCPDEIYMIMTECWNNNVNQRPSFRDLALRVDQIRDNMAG

[8] = tested on: mouse immortalized TT-D6 Scx-luciferase (ScxL) cell line; transcriptional activation of Scleraxis (Scx) gene; test: SCX-LUC in vitro assay (scleraxis promoter luciferase reporter); type: cell-based; conditions: Mus musculus, 96 h
[9] = Cumulative release from PLGA microparticle formulations in PBS buffer; type: physicochemical; conditions: incorporated into PLGA microparticles, PBS buffer pH 7.4, 1% Tween 20
Text: In the current invention, the microparticles formulation contains a copolymer of DL-lactide and glycolide in a 50:50 molar ratio with an ester end group plus Test Compound A is used. The total amount of Test Compound A incorporated into the microparticles ranges from 2% to 10% (w/w). The microparticles are formulated to mean mass range in size from 5 to 25 microns. The population of microparticles is formulated to be delivered through a 22 gauges or higher needles (see Table A below). Organic solvent was used for preparation of microparticles were dichloromethane (DCM) and ethyl acetate (EA) either alone or in combination with methanol (MeOH) and/or dimethyl sulfoxide (DMSO) e.g., ratio of MeOH/DMSO from 5-15% in DCM or EA as primary solvent. Additional excipients may be added such as, but not limited to, carboxymethylcellulose sodium, mannitol and ploxamer to achieve isotonicity and promote syringeability.
(§1) Test Compound A incorporated into the microparticles provides an initial release (burst) of about 5-10% of drug over a period of 1 to 2 days, followed by a steady state release of drug over a period of 21 days (FIG. 1). In-vivo the microparticles could extend the release of Test Compound A over 4 weeks in a rat model.

[10] = In-vivo release from microparticles in a rat model
Text: as §1

[11] = Table 1, rat tail tendon fascicles, four days, delta-delta Ct

| Structure (SMILES) | EC50 ([1]; Rattus norvegicus) [µM] | IC50 [2] [µM] | IC50 [3] [µM] | EC50 ([4]; Rattus norvegicus) [µM] | IC50 [5] [µM] | EC50 ([6]; Rattus norvegicus) [µM] | IC50 [7] [µM] | EC50 ([8]; read-out: Scx-Luc (EC50 uM)) [µM] | period of steady state release of drug ([9]; after initial burst) [days] | initial release (burst) of drug ([9]; over a period of 1 to 2 days) | EC50 ([8]; Examples table, TT-D6 Scx-luciferase cells, 1 ng/ml TGFβ1, four days, read-out: Scx-Luc (EC50 μM)) [µM] | extended release in-vivo [10] [weeks] | EC50 [1, 11] [µM] | EC50 [4, 11] [µM] | EC50 ([8]; Table 1, TT-D6 Scx-luciferase cells, 1 ng/ml TGFβ1, four days, read-out: Scx-Luc (EC50 uM)) [µM] | EC50 [6, 11] [µM] |
| --- | --- | --- | --- | --- | --- | --- | --- | --- | --- | --- | --- | --- | --- | --- | --- | --- |
| N#C[C@@H]1C[C@H](N2CCC2)CC[C@H]1n1cc(C(N)=O)c(Nc2ccc(C(F)(F)F)cc2)n1 | 5.76 | 10 | 0.12 | 3.65 | 0.002 | 5.63 | 0.24 | – | – | – | – | – | – | – | – | – |
| N#C[C@H]1C[C@H](O)CC[C@@H]1n1cc(C(N)=O)c(Nc2ccc(C(F)(F)F)cc2)n1 [reference compound] | 3.82 | 10 | 0.11 | 3.97 | 0.004 | 5.65 | 0.15 | 2.06 | – | – | – | – | – | – | – | – |
| Cc1cc(S(=O)(=O)N[C@H]2C[C@](O)(C(F)(F)F)C2)ccc1-c1ccc2[nH]nc(N)c2n1 [Example 2, 4-(3-amino-1H-pyrazolo[4,3-b]pyridin-5-yl)-N-((1s,3s)-3-hydroxy-3-(trifluoromethyl)cyclobutyl)-3-methylbenzenesulfonamide] | – | – | – | – | – | – | – | – | 21 | 5-10% | 0.376 | 4 | – | – | – | – |
| N#C[C@H]1CC(=O)CC[C@@H]1n1cc(C(N)=O)c(Nc2ccc(C(F)(F)F)cc2)n1 [reference compound] | – | – | – | – | – | – | – | – | – | – | – | – | 4.83 | 0.94 | 1.24 | 0.85 |
| N#C[C@H]1C[C@@H](N2CCC2)CC[C@@H]1n1cc(C(N)=O)c(Nc2ccc(C(F)(F)F)cc2)n1 [reference compound] | 0.08 | 10 | 1.8 | 0.42 | 0.04 | 1.16 | 2.7 | 2.05 | – | – | – | – | – | – | – | – |
